Experiment: Example 1: kidney biomarkers (urea nitrogen, creatinine, GFR) in short bowel syndrome patients, every four weeks for 24 weeks; also sorted by >5% change from baseline
Assay type: in vivo, Human
Set-up: CREATININE (RATE BLANKED) Change from Baseline Median / GFR Median / GFR Change from Baseline Median / UREA NITROGEN Median / UREA NITROGEN Change from Baseline Median: unit not given here
Settings: for CREATININE (RATE BLANKED) change from baseline <−5%, number of patients / CREATININE (RATE BLANKED) change from baseline <−5%, percent of patients / CREATININE (RATE BLANKED) change from baseline >5%, number of patients / CREATININE (RATE BLANKED) change from baseline >5%, percent of patients / CREATININE (RATE BLANKED) change from baseline −5% <= and <=5%, number of patients / CREATININE (RATE BLANKED) change from baseline −5% <= and <=5%, percent of patients / GFR change from baseline <−5%, number of patients / GFR change from baseline <−5%, percent of patients / GFR change from baseline >5%, number of patients / GFR change from baseline >5%, percent of patients / GFR change from baseline −5% <= and <=5%, number of patients / GFR change from baseline −5% <= and <=5%, percent of patients / UREA NITROGEN change from baseline <−5%, number of patients / UREA NITROGEN change from baseline <−5%, percent of patients / UREA NITROGEN change from baseline >5%, number of patients / UREA NITROGEN change from baseline >5%, percent of patients / UREA NITROGEN change from baseline −5% <= and <=5%, number of patients / UREA NITROGEN change from baseline −5% <= and <=5%, percent of patients: 0.1 mg/kg/day
Method: Human patients with short bowel syndrome were divided into three groups: a control group (16 total individuals) to receive placebo, an experimental group (35 total individuals) to receive teduglutide at 0.05 mg/kg/day throughout the study, and an experimental group (32 total individuals) to receive teduglutide at 0.1 mg/kg/day throughout the study. Patients were treated by subcutaneous injection of placebo or the appropriate dose of teduglutide. As individuals with short bowel syndrome are likely to experience associated liver and kidney disease, known biomarkers of liver and kidney function were monitored every four weeks, for 24 weeks. The liver biomarkers tested included total bilirubin, ALT and AST and ALP. The kidney biomarkers tested included urea nitrogen, creatinine and GFR. Before administration of placebo or teduglutide, diagnostic biomarker levels were tested to establish a baseline for each individual.
To visualize the effect of GLP-2 on the levels of the diagnostic biomarkers, the average change from baseline was calculated for the placebo and teduglutide treated groups for each visit after a baseline was established. The average change from baseline of each group is depicted in FIGS. 1-7. The numerical figures for each diagnostic biomarker at each time point are depicted in Table 1.
The raw data for this sorting is reproduced in Table 2 below.

## CC[C@H](C)[C@H](NC(=O)[C@H](Cc1ccccc1)NC(=O)[C@H](CC(=O)O)NC(=O)[C@H](CCCNC(=N)N)NC(=O)[C@H](C)NC(=O)[C@H](C)NC(=O)[C@H](CC(C)C)NC(=O)[C@H](CC(N)=O)NC(=O)[C@H](CC(=O)O)NC(=O)[C@H](CC(C)C)NC(=O)[C@@H](NC(=O)[C@@H](NC(=O)[C@H](CC(N)=O)NC(=O)[C@H](CCSC)NC(=O)[C@H](CCC(=O)O)NC(=O)[C@H](CC(=O)O)NC(=O)[C@H](CO)NC(=O)[C@H](Cc1ccccc1)NC(=O)[C@H](CO)NC(=O)CNC(=O)[C@H](CC(=O)O)NC(=O)CNC(=O)[C@@H](N)Cc1c[nH]cn1)[C@@H](C)O)[C@@H](C)CC)C(=O)N[C@@H](CC(N)=O)C(=O)N[C@@H](Cc1c[nH]c2ccccc12)C(=O)N[C@@H](CC(C)C)C(=O)N[C@H](C(=O)N[C@@H](CCC(N)=O)C(=O)N[C@H](C(=O)N[C@@H](CCCCN)C(=O)N[C@H](C(=O)N[C@H](C(=O)N[C@@H](CC(=O)O)C(=O)O)[C@@H](C)O)[C@@H](C)CC)[C@@H](C)O)[C@@H](C)CC [teduglutide]
0.10 mg/kg/day, DW4
  CREATININE (RATE BLANKED) Change from Baseline Median: −0.5
  CREATININE (RATE BLANKED) Median: 83 µmol/L
  GFR Change from Baseline Median: 3.1
  UREA NITROGEN Change from Baseline Median: 0.2
  UREA NITROGEN Median: 6.3
0.10 mg/kg/day, DW8
  CREATININE (RATE BLANKED) Change from Baseline Median: 0.0
  CREATININE (RATE BLANKED) Median: 86 µmol/L
  GFR Change from Baseline Median: 0.2
  UREA NITROGEN Change from Baseline Median: 0.1
  UREA NITROGEN Median: 6.4
0.10 mg/kg/day, DW12
  CREATININE (RATE BLANKED) Change from Baseline Median: 6.5
  GFR Change from Baseline Median: −0.5
  UREA NITROGEN Change from Baseline Median: 0.0
  UREA NITROGEN Median: 5.9
0.10 mg/kg/day, DW16
  CREATININE (RATE BLANKED) Change from Baseline Median: 0.0
  GFR Change from Baseline Median: 1.1
  UREA NITROGEN Change from Baseline Median: 0.0
  UREA NITROGEN Median: 6.1
0.10 mg/kg/day, DW20
  CREATININE (RATE BLANKED) Change from Baseline Median: 0.0
  CREATININE (RATE BLANKED) Median: 88 µmol/L
  GFR Change from Baseline Median: 1.5
  UREA NITROGEN Change from Baseline Mean (SD): −0.0 (1.60)
  UREA NITROGEN Change from Baseline Median: −0.1
  UREA NITROGEN Median: 6.0
0.10 mg/kg/day, DW 24
  CREATININE (RATE BLANKED) Change from Baseline Median: 0.0
  CREATININE (RATE BLANKED) Median: 81 µmol/L
  GFR Change from Baseline Median: 2.3
  UREA NITROGEN Change from Baseline Median: 0.3
  UREA NITROGEN Median: 5.9
Week 4
  CREATININE (RATE BLANKED) change from baseline <−5%, number of patients: 12
  CREATININE (RATE BLANKED) change from baseline <−5%, percent of patients: (37.5%)
  CREATININE (RATE BLANKED) change from baseline >5%, number of patients: 7
  CREATININE (RATE BLANKED) change from baseline >5%, percent of patients: (21.9%)
  CREATININE (RATE BLANKED) change from baseline −5% <= and <=5%, number of patients: 13
  CREATININE (RATE BLANKED) change from baseline −5% <= and <=5%, percent of patients: (40.6%)
  GFR change from baseline <−5%, number of patients: 7
  GFR change from baseline <−5%, percent of patients: (21.9%)
  GFR change from baseline >5%, number of patients: 14
  GFR change from baseline >5%, percent of patients: (43.8%)
  GFR change from baseline −5% <= and <=5%, number of patients: 11
  GFR change from baseline −5% <= and <=5%, percent of patients: (34.4%)
  UREA NITROGEN change from baseline <−5%, number of patients: 10
  UREA NITROGEN change from baseline <−5%, percent of patients: (31.3%)
  UREA NITROGEN change from baseline >5%, number of patients: 15
  UREA NITROGEN change from baseline >5%, percent of patients: (46.9%)
  UREA NITROGEN change from baseline −5% <= and <=5%, number of patients: 7
  UREA NITROGEN change from baseline −5% <= and <=5%, percent of patients: (21.9%)
Week 8
  CREATININE (RATE BLANKED) change from baseline <−5%, number of patients: 8
  CREATININE (RATE BLANKED) change from baseline <−5%, percent of patients: (25.0%)
  CREATININE (RATE BLANKED) change from baseline >5%, number of patients: 13
  CREATININE (RATE BLANKED) change from baseline >5%, percent of patients: (40.6%)
  CREATININE (RATE BLANKED) change from baseline −5% <= and <=5%, number of patients: 10
  CREATININE (RATE BLANKED) change from baseline −5% <= and <=5%, percent of patients: (31.3%)
  GFR change from baseline <−5%, number of patients: 9
  GFR change from baseline <−5%, percent of patients: (28.1%)
  GFR change from baseline >5%, number of patients: 9
  GFR change from baseline >5%, percent of patients: (28.1%)
  GFR change from baseline −5% <= and <=5%, number of patients: 13
  GFR change from baseline −5% <= and <=5%, percent of patients: (40.6%)
  UREA NITROGEN change from baseline <−5%, number of patients: 9
  UREA NITROGEN change from baseline <−5%, percent of patients: (28.1%)
  UREA NITROGEN change from baseline >5%, number of patients: 15
  UREA NITROGEN change from baseline >5%, percent of patients: (46.9%)
  UREA NITROGEN change from baseline −5% <= and <=5%, number of patients: 7
  UREA NITROGEN change from baseline −5% <= and <=5%, percent of patients: (21.9%)
Week 12
  CREATININE (RATE BLANKED) change from baseline <−5%, number of patients: 9
  CREATININE (RATE BLANKED) change from baseline <−5%, percent of patients: (28.1%)
  CREATININE (RATE BLANKED) change from baseline >5%, number of patients: 17
  CREATININE (RATE BLANKED) change from baseline >5%, percent of patients: (53.1%)

— US20130157954A1, “METHODS FOR TREATMENT OR PROPHYLAXIS OF KIDNEY OR LIVER DYSFUNCTION” (NPS PHARMACEUTICALS, INC., priority 2010, published 2013)
